In US20250242031A1, “POLYMER SALTS FOR IMPROVED DRUG DELIVERY FROM AMORPHOUS SOLID DISPERSIONS” (Purdue Research Foundation, priority 2022, published 2025):
In brackets after ≈: the same amount, converted by molar mass.

Assay: Drug amorphous solubility
Assay type: physicochemical
Details: aqueous buffer; miconazole, dissolution medium pH 6.8

solubility: ~5 µg/mL (≈ 12 µM)
Structure (SMILES): Clc1ccc(COC(Cn2ccnc2)c2ccc(Cl)cc2Cl)c(Cl)c1 (stereo not shown) [miconazole]
